Laboratory results published in PubChem BioAssay (NCI).
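Five concentrations, 48 hours, 96-well plates. Definition used: TGI = concentration required for complete inhibition of growth.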

Tests used:
Experiment in all cases: inhibition of tumour cell growth, NCI panel, 48 h
U251 CNS = tested on: U251 CNS
UACC-257 melanoma = tested on: UACC-257 melanoma
CCRF-CEM leukemia = tested on: CCRF-CEM leukemia
T-47D breast = tested on: T-47D breast
SF-268 CNS = tested on: SF-268 CNS
TK-10 renal = tested on: TK-10 renal
HT29 colon = tested on: HT29 colon
RXF 393 renal = tested on: RXF 393 renal
CAKI-1 renal = tested on: CAKI-1 renal
SR leukemia = tested on: SR leukemia
A549 NSCLC = tested on: A549 NSCLC
HL-60(TB) leukemia = tested on: HL-60(TB) leukemia
MDA-N = tested on: MDA-N
PC-3 prostate = tested on: PC-3 prostate
SNB-19 CNS = tested on: SNB-19 CNS
SK-MEL-28 melanoma = tested on: SK-MEL-28 melanoma
HCT-116 colon = tested on: HCT-116 colon
NCI-H460 lung = tested on: NCI-H460 lung
OVCAR-5 ovarian = tested on: OVCAR-5 ovarian
LOX IMVI melanoma = tested on: LOX IMVI melanoma
M14 melanoma = tested on: M14 melanoma
SF-295 CNS = tested on: SF-295 CNS
SW-620 colon = tested on: SW-620 colon
SK-MEL-2 melanoma = tested on: SK-MEL-2 melanoma
RPMI-8226 leukemia = tested on: RPMI-8226 leukemia
SF-539 CNS = tested on: SF-539 CNS
OVCAR-3 ovarian = tested on: OVCAR-3 ovarian
OVCAR-4 ovarian = tested on: OVCAR-4 ovarian
UO-31 renal = tested on: UO-31 renal
DU-145 prostate = tested on: DU-145 prostate
K-562 leukemia = tested on: K-562 leukemia
786-0 renal = tested on: 786-0 renal
COLO 205 colon = tested on: COLO 205 colon
OVCAR-8 ovarian = tested on: OVCAR-8 ovarian
SNB-75 CNS = tested on: SNB-75 CNS
MOLT-4 leukemia = tested on: MOLT-4 leukemia
MDA-MB-435 = tested on: MDA-MB-435
NCI-H522 lung = tested on: NCI-H522 lung
UACC-62 melanoma = tested on: UACC-62 melanoma
SK-OV-3 ovarian = tested on: SK-OV-3 ovarian
MALME-3M melanoma = tested on: MALME-3M melanoma
EKVX NSCLC = tested on: EKVX NSCLC
SN12C renal = tested on: SN12C renal
MDA-MB-231 breast = tested on: MDA-MB-231 breast
HOP-92 NSCLC = tested on: HOP-92 NSCLC
MCF7 breast = tested on: MCF7 breast
NCI-H23 lung = tested on: NCI-H23 lung
NCI-H226 lung = tested on: NCI-H226 lung
HOP-62 NSCLC = tested on: HOP-62 NSCLC
HCC-2998 colon = tested on: HCC-2998 colon
IGROV1 ovarian = tested on: IGROV1 ovarian
SK-MEL-5 melanoma = tested on: SK-MEL-5 melanoma
HS 578T breast = tested on: HS 578T breast
ACHN renal = tested on: ACHN renal
BT-549 breast = tested on: BT-549 breast
NCI/ADR-RES ovarian = tested on: NCI/ADR-RES ovarian
KM12 colon = tested on: KM12 colon
HCT-15 colon = tested on: HCT-15 colon
A498 renal = tested on: A498 renal

**Q.** What does the source list for `CCN(CC)CCCn1c(=O)c2cccnc2n2c3c(=O)n(C)c(=O)n(C)c3nc12`?
**A.** TGI (U251 CNS): > 100000 nM; TGI (UACC-257 melanoma): > 100000 nM; TGI (CCRF-CEM leukemia): > 100000 nM; TGI (T-47D breast): > 100000 nM; TGI (SF-268 CNS): > 100000 nM; TGI (TK-10 renal): > 100000 nM; TGI (HT29 colon): > 100000 nM; TGI (RXF 393 renal): > 100000 nM; TGI (CAKI-1 renal): > 100000 nM; TGI (SR leukemia): > 100000 nM; TGI (A549 NSCLC): > 100000 nM; TGI (HL-60(TB) leukemia): > 100000 nM; TGI (MDA-N): > 100000 nM; TGI (PC-3 prostate): > 100000 nM; TGI (SNB-19 CNS): > 100000 nM; TGI (SK-MEL-28 melanoma): > 100000 nM; TGI (HCT-116 colon): > 100000 nM; TGI (NCI-H460 lung): > 100000 nM; TGI (OVCAR-5 ovarian): > 100000 nM; TGI (LOX IMVI melanoma): > 100000 nM; TGI (M14 melanoma): > 100000 nM; TGI (SF-295 CNS): > 100000 nM; TGI (SW-620 colon): > 100000 nM; TGI (SK-MEL-2 melanoma): > 100000 nM; TGI (RPMI-8226 leukemia): > 100000 nM; TGI (SF-539 CNS): > 100000 nM; TGI (OVCAR-3 ovarian): > 100000 nM; TGI (OVCAR-4 ovarian): > 100000 nM; TGI (UO-31 renal): > 100000 nM; TGI (DU-145 prostate): > 100000 nM; TGI (K-562 leukemia): > 100000 nM; TGI (786-0 renal): > 100000 nM; TGI (COLO 205 colon): > 100000 nM; TGI (OVCAR-8 ovarian): > 100000 nM; TGI (SNB-75 CNS): > 100000 nM; TGI (MOLT-4 leukemia): > 100000 nM; TGI (MDA-MB-435): > 100000 nM; TGI (NCI-H522 lung): > 100000 nM; TGI (UACC-62 melanoma): > 100000 nM; TGI (SK-OV-3 ovarian): > 100000 nM; TGI (MALME-3M melanoma): > 100000 nM; TGI (EKVX NSCLC): > 100000 nM; TGI (SN12C renal): > 100000 nM; TGI (MDA-MB-231 breast): > 100000 nM; TGI (HOP-92 NSCLC): > 100000 nM; TGI (MCF7 breast): > 100000 nM; TGI (NCI-H23 lung): > 100000 nM; TGI (NCI-H226 lung): > 100000 nM; TGI (HOP-62 NSCLC): > 100000 nM; TGI (HCC-2998 colon): > 100000 nM; TGI (IGROV1 ovarian): > 100000 nM; TGI (SK-MEL-5 melanoma): > 100000 nM; TGI (HS 578T breast): > 100000 nM; TGI (ACHN renal): > 100000 nM; TGI (BT-549 breast): > 100000 nM; TGI (NCI/ADR-RES ovarian): > 100000 nM; TGI (KM12 colon): > 100000 nM; TGI (HCT-15 colon): > 100000 nM

**Q.** How did the TGI (U251 CNS) turn out when `C[C@@H]1C[C@H](O)[C@]2(O)O[C@@H]3C[C@@]4(C=O)[C@@H](CC=C5[C@@H]4CC[C@]4(C)[C@@H](C6=CC(=O)OC6)CC[C@]54O)C[C@H]3O[C@@H]2O1` was run?
**A.** 188 nM

**Q.** And the TGI (UACC-257 melanoma)?
**A.** 372 nM

**Q.** And the TGI (CCRF-CEM leukemia)?
**A.** 16.1 nM

**Q.** And the TGI (T-47D breast)?
**A.** 325 nM

**Q.** What about the TGI (SF-268 CNS) of the same compound?
**A.** 166 nM

**Q.** And the TGI (TK-10 renal)?
**A.** 186 nM

**Q.** And the TGI (HT29 colon)?
**A.** 250 nM

**Q.** What about the TGI (CAKI-1 renal) of the same compound?
**A.** 72.2 nM

**Q.** And the TGI (A549 NSCLC)?
**A.** 97 nM

**Q.** What about the TGI (HL-60(TB) leukemia) of the same compound?
**A.** 62 nM

**Q.** And the TGI (MDA-N)?
**A.** 195 nM

**Q.** What about the TGI (SNB-19 CNS) of the same compound?
**A.** 930 nM

**Q.** And the TGI (HCT-116 colon)?
**A.** 36 nM

**Q.** What about the TGI (NCI-H460 lung) of the same compound?
**A.** 71.1 nM

**Q.** What about the TGI (OVCAR-5 ovarian) of the same compound?
**A.** 492 nM

**Q.** And the TGI (A498 renal)?
**A.** 62.7 nM

**Q.** And the TGI (M14 melanoma)?
**A.** 817 nM

**Q.** And the TGI (SF-295 CNS)?
**A.** 627 nM

**Q.** What about the TGI (SW-620 colon) of the same compound?
**A.** 1870 nM

**Q.** What about the TGI (RPMI-8226 leukemia) of the same compound?
**A.** 349 nM

**Q.** And the TGI (SF-539 CNS)?
**A.** 141 nM

**Q.** What about the TGI (OVCAR-3 ovarian) of the same compound?
**A.** 308 nM

**Q.** And the TGI (OVCAR-4 ovarian)?
**A.** < 16.9 nM

**Q.** What about the TGI (UO-31 renal) of the same compound?
**A.** 153 nM

**Q.** And the TGI (DU-145 prostate)?
**A.** 38.4 nM

**Q.** What about the TGI (K-562 leukemia) of the same compound?
**A.** > 100000 nM

**Q.** And the TGI (COLO 205 colon)?
**A.** 1940 nM

**Q.** What about the TGI (OVCAR-8 ovarian) of the same compound?
**A.** 220 nM

**Q.** And the TGI (SNB-75 CNS)?
**A.** 916 nM

**Q.** And the TGI (MDA-MB-435)?
**A.** 151 nM

**Q.** And the TGI (NCI-H522 lung)?
**A.** 46.8 nM

**Q.** And the TGI (SK-OV-3 ovarian)?
**A.** 1860 nM

**Q.** What about the TGI (MALME-3M melanoma) of the same compound?
**A.** 53.2 nM

**Q.** What about the TGI (EKVX NSCLC) of the same compound?
**A.** 215 nM

**Q.** What about the TGI (SN12C renal) of the same compound?
**A.** 131 nM

**Q.** And the TGI (MDA-MB-231 breast)?
**A.** 2650 nM

**Q.** What about the TGI (HOP-92 NSCLC) of the same compound?
**A.** 174 nM

**Q.** And the TGI (NCI-H23 lung)?
**A.** 20.7 nM

**Q.** What about the TGI (NCI-H226 lung) of the same compound?
**A.** 233 nM

**Q.** And the TGI (HOP-62 NSCLC)?
**A.** 31.9 nM

**Q.** And the TGI (HCC-2998 colon)?
**A.** 285 nM

**Q.** What about the TGI (SK-MEL-5 melanoma) of the same compound?
**A.** 133 nM

**Q.** And the TGI (HS 578T breast)?
**A.** 191 nM

**Q.** What about the TGI (ACHN renal) of the same compound?
**A.** 82.1 nM

**Q.** What about the TGI (BT-549 breast) of the same compound?
**A.** 50.8 nM

**Q.** And the TGI (NCI/ADR-RES ovarian)?
**A.** 215 nM

**Q.** And the TGI (KM12 colon)?
**A.** 749 nM

**Q.** What about the TGI (HCT-15 colon) of the same compound?
**A.** 194 nM
